Test system: HEK293 NOD2/MDP-induced NF-kB reporter, inhibition
Assay: inhibition of MDP-driven NOD2 NF-kB reporter – cell-based, set 3, SAR follow-up (AID 2799)

CCCCn1c(SCC(=O)Nc2nnc(CC)s2)nc2c1c(=O)n(C)c(=O)n2C
IC50: 7.12 µM

Source: PubChem BioAssay AID2799 (Sanford-Burnham Center for Chemical Genomics, 2010)
